Experimental data: article PMC9453454, “Design, synthesis, and anticancer activity of three novel palbociclib derivatives” (Frontiers in Oncology, 2022)
Like-named read-outs stand apart in the source and are kept apart here.

What was measured:
MDA-MB-231 cells = assay: MTT in vitro cytotoxicity, MDA-MB-231; assay type: cell-based, human
Method: (§1) Human lung cancer cells (NCI-H460, NCI-H1299, and A549), human breast cancer cells (MDA-MB-231, MDA-MB-453, and MCF-7), human liver cancer cells (Huh-7 and HepG2), human colon cancer cells (coca-2, HT-29, and HCT116), human cervical cancer cells (HeLa), human normal lung cells (BEAS-2B), and human normal […] (MCF-10) were from the State Key Laboratory of Pharmaceutical Biotechnology, Nanjing University. NCI-H460 were cultured in 1640 medium containing 10% fetal bovine serum (FBS). MDA-MB-231 were cultured in L15 medium containing 10% FBS without CO2, and other cell lines were cultured in DMEM medium containing 10% FBS CO2 in the incubator.
(§2) MTT assay was used to identify 14 different cell lines (human lung cancer cells NCI-H460, NCI-H1299, and A549; human breast cancer cells MDA-MB-231, MDA-MB-453, and MCF-7; human liver cancer cells Huh-7 and HepG2; human colon cancer cells coca-2, HT-29, and HCT116; and human cervical cancer cells HeLa) and 2 kinds of normal cell lines (human normal lung epithelial cells BEAS-2B, human normal breast epithelial cells MCF10-A) for quantitative analysis ([15]). In addition, 10-HCPT and palbociclib were used as positive control.
(§3) Cells were harvested during the logarithmic growth phase and seeded into 96-well plates at a density of 2.0×10^3 cells/well. After being incubated for 24 h, the cells were treated with different concentrations of various culture programs for 48 h. Afterwards, 20 μl of MTT solution (5 mg/ml) was added to each well, and the cells were incubated in a 5% CO2 atmosphere at 37°C for another 4 h. Then, the supernatant was discarded, and the formazan crystals were dissolved in 150 μl DMSO. Subsequently, the absorbance was measured at 570 nm via a Tecan microplate reader. The concentration that caused 50% inhibition of cell viability (IC50) values was calculated by GraphPad Software. Triplicate experiments were performed in parallel for each concentration, and the results are shown as the mean ± SD. The inhibitory ratio was calculated using the following formula: inhibitory ratio (%) = [1−(mean absorbance of experiment group)/(mean absorbance of control group)] × 100.

NCI-H460 cells [1] = assay: MTT in vitro cytotoxicity, NCI-H460; assay type: cell-based, human
Method: as §1, §2, §3

HT-29 cells = assay: MTT in vitro cytotoxicity, HT-29; assay type: cell-based, human
Method: as §1, §2, §3

MDA-MB-453 cells = assay: MTT in vitro cytotoxicity, MDA-MB-453; assay type: cell-based, human
Method: as §1, §2, §3

Coca-2 cells = assay: MTT in vitro cytotoxicity, Coca-2; assay type: cell-based, human; details: 48 h
Method: as §1, §2, §3

NCI-H1299 cells = assay: MTT in vitro cytotoxicity, NCI-H1299; assay type: cell-based, human
Method: as §1, §2, §3

MCF10-A cells = assay: MTT in vitro cytotoxicity, MCF10-A normal breast epithelial cells; assay type: cell-based, human; details: MCF-10A, 48 h
Method: as §1, §2, §3

Hela cells = assay: MTT in vitro cytotoxicity, Hela; assay type: cell-based, human; details: 48 h
Method: as §1, §2, §3

Huh-7 cells = assay: MTT in vitro cytotoxicity, Huh-7; assay type: cell-based, human
Method: as §1, §2, §3

MCF-7 cells = assay: MTT in vitro cytotoxicity, MCF-7; assay type: cell-based, human
Method: as §1, §2, §3

HepG2 cells = assay: MTT in vitro cytotoxicity, HepG2; assay type: cell-based, human
Method: as §1, §2, §3

BEAS-2B cells = assay: MTT in vitro cytotoxicity, BEAS-2B normal lung epithelial cells; assay type: cell-based, human; details: 48 h
Method: as §1, §2, §3

A549 cells = assay: MTT in vitro cytotoxicity, A549; assay type: cell-based, human
Method: as §1, §2, §3

HCT116 cells = assay: MTT in vitro cytotoxicity, HCT116; assay type: cell-based, human
Method: as §1, §2, §3

[2] = tested on: PI3K, AKT, p-PI3K, and p-AKT; assay: Western blot of PI3K/AKT pathway-related proteins in NCI-H460; assay type: cell-based, human; details: NCI-H460, 0, 0.5, 1, 2 μM for 24 h
Method: (§4) NCI-H460 cells were harvested in logarithmic growth phase and seeded into six-well plates at a density of 5.0 × 10^3 cells/well. After being incubated for 48 h, the cells were harvested with 0.25% Trypsin after exposed to various concentrations of HP-1 (0, 0.5, 1, 2 μM), 10-HCPT (2 μM), and pabocini (2 μM) for 24 h.Then, precooled radio-immunoprecipitation assay (RIPA) lysates [10 mM Tris–HCl, 1 mM EDTA, 1% sodium dodecyl sulfate (SDS), 1 mM dithiothreitol (DTT), 0.1 mM phenylmethylsulfonyl fluoride (PMSF), protease inhibitors, 1% Nonidet P-40, pH 8] were added to them and placed on ice to lyse the cells for 30 min. After centrifugation at 10,000 rpm and 4°C for 10 min, the supernatant was collected to obtain soluble proteins. Lysates were centrifuged at 10,000 rpm for 20 min at 4°C, and the supernatant was collected.
(§5) The absorbance value was measured at 562 nm using a microplate analyzer to calculate the protein content. An equal amount of protein was separated by 10% SDS–polyacrylamide gel electrophoresis (SDS-PAGE) gels and transferred onto PVDF membrane. […] Finally, the membrane was placed on the membrane carrier plate, and the bands were detected with enhanced chemiluminescence reagent to indicate the protein expression.

[3] = tested on: Cyclin D, CDK4, CDK6, Rb, and p-Rb; assay: Western blot of Cyclin D-CDK4/6-Rb pathway proteins in NCI-H460; assay type: cell-based, human; details: NCI-H460, 0, 0.5, 1, 2 μM for 24 h
Method: as §4, §5

NCI-H460 cells [4] = assay: Annexin V/PI apoptosis by flow cytometry, NCI-H460; assay type: cell-based, human; details: same concentration (not given)
Method: NCI-H460 cells were harvested in logarithmic growth phase and seeded into six-well plates at a density of 5.0 × 10^3 cells/well. After being incubated for 24 h, the cells were harvested with 0.25% Trypsin after exposed to various culture programs, washed with PBS, and re-suspended in 500 μl binding buffer. The experiment was triply replicated. Then, the cells were stained by adding to 5 μl Annexin V-FITC and 5 μl PI for15 min at 25°C in the dark. Finally, the cells were detected and analyzed using a flow cytometer with FlowJo 7.6.1.

Question: For `CC[C@@]1(O)C(=O)OCc2c1cc1n(c2=O)Cc2cc3cc(O)ccc3nc2-1` [10-HCPT, 10-hydroxycamptothecin, reference compound], which IC50 (MDA-MB-231 cells; Homo sapiens, MDA-MB-231, 48 h) is on record?
Answer: The IC50 was 15.5 ± 1.07 µM.

Question: And the IC50 (NCI-H460 cells [1]; Homo sapiens, NCI-H460, 48 h)?
Answer: Its IC50 is 1.96 ± 0.01 µM.

Question: What about the IC50 (HT-29 cells; Homo sapiens, HT-29, 48 h) of the same molecule?
Answer: Its IC50 is 4.61 ± 0.19 µM.

Question: And the IC50 (MDA-MB-453 cells; Homo sapiens, MDA-MB-453, 48 h)?
Answer: The IC50 was 5.73 ± 0.62 µM.

Question: And the IC50 (Coca-2 cells; Homo sapiens)?
Answer: Its IC50 is 13.4 ± 0.34 µM.

Question: What about the IC50 (NCI-H1299 cells; Homo sapiens, NCI-H1299, 48 h) of the same molecule?
Answer: The IC50 was 3.39 ± 0.16 µM.

Question: And the IC50 (MCF10-A cells; Homo sapiens)?
Answer: Its IC50 is 20.3 ± 0.59 µM.

Question: And the IC50 (Hela cells; Homo sapiens, HeLa)?
Answer: Its IC50 is 6.54 ± 0.07 µM.

Question: What about the IC50 (Huh-7 cells; Homo sapiens, Huh-7, 48 h) of the same molecule?
Answer: Its IC50 is 7.69 ± 0.84 µM.

Question: And the IC50 (MCF-7 cells; Homo sapiens, MCF7, 48 h)?
Answer: Its IC50 is 13.2 ± 0.31 µM.

Question: What about the IC50 (HepG2 cells; Homo sapiens, HepG2, 48 h) of the same molecule?
Answer: The IC50 was 2.45 ± 0.27 µM.

Question: And the IC50 (BEAS-2B cells; Homo sapiens, BEAS-2B)?
Answer: The IC50 was 7.05 ± 0.52 µM.

Question: And the IC50 (A549 cells; Homo sapiens, A549, 48 h)?
Answer: The IC50 was 4.14 ± 0.03 µM.

Question: And the IC50 (HCT116 cells; Homo sapiens, HCT-116, 48 h)?
Answer: Its IC50 is 10.4 ± 0.7 µM.

Question: What does the source list for `CC[C@]1(O)C(=O)OCc2c1cc1n(c2=O)Cc2cc3cc(OC(=O)CCCC(=O)N4CCN(c5ccc(Nc6ncc7c(C)c(C(C)=O)c(=O)n(C8CCCC8)c7n6)nc5)CC4)ccc3nc2-1` [HP-1, (R)-4-ethyl-4-hydroxy-3,14-dioxo-3,4,12,14-tetrahydro-1H-pyrano[3’,4’:6,7] indolizino[1,2-b]quinolin-9-yl5-(4-(6-((6-acetyl-8-cyclopentyl-5-methyl-7-oxo-7,8-dihydropyrido[2,3-d]pyrimidin-2-yl)amino)pyridin-3-yl)piperazin-1-yl)-5-oxopentanoate]?
Answer: IC50 (MDA-MB-231 cells; MDA-MB-231 human breast cancer cells, MTT, 48 h, read-out: IC50): 15.3 ± 2.51 µM; IC50 (NCI-H460 cells [1]; NCI-H460 human lung cancer cells, MTT, 48 h, read-out: IC50): 0.96 ± 0.01 µM; IC50 (HT-29 cells; HT-29 human colon cancer cells, MTT, 48 h, read-out: IC50): 12.4 ± 1.62 µM; expression of PI3K, AKT, p-PI3K, and p-AKT [2]: decreased; Protein expressions of Cyclin D, CDK4, CDK6, Rb, and p-Rb [3]: significantly decreased; IC50 (MDA-MB-453 cells; MDA-MB-453 human breast cancer cells, MTT, 48 h, read-out: IC50): 5.28 ± 0.81 µM; IC50 (Coca-2 cells; Coca-2 human colon cancer cells, MTT, read-out: IC50): 15.2 ± 0.54 µM; melting point: 44.5 to 46.4 °C; IC50 (NCI-H1299 cells; NCI-H1299 human lung cancer cells, MTT, 48 h, read-out: IC50): 2.29 ± 0.02 µM; IC50 (MCF10-A cells; MCF10-A human normal breast epithelial cells, MTT, read-out: IC50): 32.4 ± 1.33 µM; IC50 (Hela cells; Hela human cervical cancer cells, MTT, read-out: IC50): 5.46 ± 0.08 µM; IC50 (Huh-7 cells; Huh-7 human liver cancer cells, MTT, 48 h, read-out: IC50): 9.48 ± 1.59 µM; IC50 (MCF-7 cells; MCF7, MCF-7 human breast cancer cells, MTT, 48 h, read-out: IC50): 10.3 ± 1.68 µM; IC50 (HepG2 cells; HepG2 human liver cancer cells, MTT, 48 h, read-out: IC50): 2.57 ± 0.42 µM; Q1 (annexin V/PI quadrant) (NCI-H460 cells [4]; NCI-H460, 12h): 0.32; Q2 (annexin V/PI quadrant) (NCI-H460 cells [4]; NCI-H460, 12h): 9.93; Q3 (annexin V/PI quadrant) (NCI-H460 cells [4]; NCI-H460, 12h): 13.4; Q4 (annexin V/PI quadrant) (NCI-H460 cells [4]; NCI-H460, 12h): 76.4; Q1 (annexin V/PI quadrant) (NCI-H460 cells [4]; NCI-H460, 24h): 0.80; Q2 (annexin V/PI quadrant) (NCI-H460 cells [4]; NCI-H460, 24h): 33.7; Q3 (annexin V/PI quadrant) (NCI-H460 cells [4]; NCI-H460, 24h): 31.4; Q4 (annexin V/PI quadrant) (NCI-H460 cells [4]; NCI-H460, 24h): 34.0; Q1 (annexin V/PI quadrant) (NCI-H460 cells [4]; NCI-H460, 36h): 0.66; Q2 (annexin V/PI quadrant) (NCI-H460 cells [4]; NCI-H460, 36h): 61.8; Q3 (annexin V/PI quadrant) (NCI-H460 cells [4]; NCI-H460, 36h): 33.6; Q4 (annexin V/PI quadrant) (NCI-H460 cells [4]; NCI-H460, 36h): 3.91; IC50 (BEAS-2B cells; BEAS-2B human normal lung epithelial cells, MTT, read-out: IC50): 36.4 ± 0.43 µM; IC50 (A549 cells; A549 human lung cancer cells, MTT, 48 h, read-out: IC50): 3.41 ± 0.22 µM; IC50 (HCT116 cells; HCT-116, HCT116 human colon cancer cells, MTT, 48 h, read-out: IC50): 17.1 ± 0.31 µM
